Data taken from patent publication US10253039B2, “Inhibitors of bacterial DNA gyrase with efficacy against gram-negative bacteria” (priority 2014, dated 2019).
In brackets after ≈: the same amount, converted by molar mass.

Assays:
Type in all cases: cell-based
Streptococcus pyogenes = test: MIC, 20-strain panel
How it was run: (§1)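 After 16-18 h shaking incubation at 37 °C, MIC was read visually as the lowest concentration without turbidity. Compounds were 2-fold serially diluted in LB medium seeded with a 1:10000 inoculum, following the CLSI microdilution protocol.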

Streptococcus agalactiae = test: MIC, 20-strain panel
How it was run: as §1

[1] = test system: Salmonella enterica subsp. enterica typhimurium; test: MIC, 20-strain panel; details: Salmonella enterica subsp. enterica Typhimurium
How it was run: as §1

[2] = test system: Staphylococcus aureus subsp. aureus; test: MIC, 20-strain panel; details: Staphylococcus aureus subsp. aureus, read-out: MIC
How it was run: as §1

[3] = test system: Staphylococcus epidermidis; test: MIC, 20-strain panel
How it was run: as §1

[4] = test system: Klebsiella pneumoniae subsp. pneumoniae; test: MIC, 20-strain panel; details: Klebsiella pneumoniae subsp. pneumoniae
How it was run: as §1

[5] = test system: Staphylococcus saprophyticus subsp. saprophyticus; test: MIC, 20-strain panel
How it was run: as §1

E. coli MG1655 = test: MIC, 20-strain panel; details: Escherichia coli, MG1655, E. coli MG1655; read-out: MIC
How it was run: as §1

Shigella flexneri = test: MIC, 20-strain panel
How it was run: as §1

E. coli JW5503 (deltolC) = test: MIC, 20-strain panel; details: Escherichia coli, E. coli JW5503 (deltolC)
How it was run: as §1

E. coli BW25113 = test: MIC, microdilution in 96-well plates; details: Escherichia coli, BW25113, E. coli BW25113; read-out: MIC
How it was run: as §1

Edwardsiella tarda = test: MIC, microdilution in 96-well plates
How it was run: as §1

Structure (SMILES)	MIC (Streptococcus pyogenes) [µg/mL]	MIC (Streptococcus agalactiae) [µg/mL]	MIC [1] [µg/mL]	MIC [2] [µg/mL]	MIC [3] [µg/mL]	MIC [4] [µg/mL]	MIC [5] [µg/mL]	MIC (E. coli MG1655) [µg/mL]	MIC (Shigella flexneri) [µg/mL]	MIC (E. coli JW5503 (deltolC)) [µg/mL]	MIC (E. coli BW25113) [µg/mL]	MIC (Edwardsiella tarda) [µg/mL]
O=S(=O)(N[C@@H]1CCN(Cc2ccc(OC3CC3)cc2)C1)c1cc(F)cc(C(F)(F)F)c1 [Compound 152]	> 8	> 8	> 8	> 8	> 8	> 8	> 8	> 8	> 8	8 (≈ 17.4 µM)	> 8	> 8
Cc1ccncc1S(=O)(=O)N[C@@H]1CCN(Cc2ccc(OC3CC3)cc2)C1 [Compound 153]	> 8	> 8	> 8	> 8	> 8	> 8	> 8	> 8	> 8	8 (≈ 20.6 µM)	> 8	> 8
O=S(=O)(N[C@@H]1CCN(Cc2ccc(OC3CC3)cc2)C1)c1cncc(F)c1 [Compound 154]	> 8	> 8	> 8	> 8	> 8	> 8	> 8	> 8	> 8	> 8	> 8	> 8
COc1cc(CN2CC[C@@H](NS(=O)(=O)c3cccc(C#N)c3)C2)ccc1OC(C)C [Compound 155]	> 8	> 8	> 8	> 8	> 8	> 8	> 8	> 8	> 8	> 8	> 8	> 8
Cc1nn(C)c2ncc(S(=O)(=O)N[C@@H]3CCN(Cc4ccc(OC5CC5)cc4)C3)cc12 [Compound 157]	> 8	> 8	> 8	> 8	> 8	> 8	> 8	> 8	> 8	> 8	> 8	> 8
O=S(=O)(N[C@@H]1CCN(Cc2ccc(OC3CC3)cc2)C1)c1cnc2ccsc2c1 [Compound 158]	> 8	> 8	> 8	> 8	> 8	> 8	> 8	> 8	> 8	> 8	> 8	> 8
N#Cc1ccc(S(=O)(=O)N[C@@H]2CCN(Cc3ccc(OC4CC4)cc3)C2)cn1 [Compound 159]	> 8	> 8	> 8	> 8	> 8	> 8	> 8	> 8	> 8	> 8	> 8	> 8
N#Cc1ccc(S(=O)(=O)N[C@@H]2CCN(Cc3ccc(-c4ccccc4)cc3)C2)cn1 [Compound 160]	> 8	> 8	> 8	> 8	> 8	> 8	> 8	> 8	> 8	> 8	> 8	> 8
Cc1ccc(S(=O)(=O)N[C@@H]2CCN(Cc3ccc(OC(C)C)cc3)C2)cc1C#N [Compound 161]	> 8	> 8	> 8	> 8	> 8	> 8	> 8	> 8	> 8	> 8	> 8	> 8
Cc1ccc(S(=O)(=O)N[C@@H]2CCN(Cc3ccc(OC4CC4)cc3)C2)cc1C#N [Compound 162]	> 8	> 8	> 8	> 8	> 8	> 8	> 8	> 8	> 8	> 8	> 8	> 8
O=S(=O)(N[C@@H]1CCN(Cc2ccn(-c3ccccc3)n2)C1)c1cccc(OC(F)(F)F)c1 [Compound 163]	> 8	> 8	> 8	> 8	> 8	> 8	> 8	> 8	> 8	> 8	> 8	> 8
CC(C)Oc1ccc(CN2CC[C@@H](NS(=O)(=O)c3cnc4ccsc4c3)C2)cc1 [Compound 164]	> 8	> 8	> 8	> 8	> 8	> 8	> 8	> 8	> 8	> 8	> 8	> 8
CC(C)Oc1ccc(CN2CC[C@@H](NS(=O)(=O)c3ccc(F)c(C#N)c3)C2)cc1 [Compound 165]	> 8	> 8	> 8	> 8	> 8	> 8	> 8	> 8	> 8	4 (≈ 9.58 µM)	> 8	> 8
N#Cc1cc(S(=O)(=O)N[C@@H]2CCN(Cc3ccc(OC4CC4)cc3)C2)ccc1F [Compound 166]	> 8	> 8	~8 (≈ 19.3 µM)	> 8	> 8	> 8	> 8	> 8	> 8	2 (≈ 4.81 µM)	> 8	> 8
CC(C)Oc1ccc(CN2CC[C@@H](NS(=O)(=O)c3cccnc3)C2)cc1 [Compound 167]	> 8	> 8	> 8	> 8	> 8	> 8	> 8	> 8	> 8	> 8	> 8	> 8
O=S(=O)(N[C@@H]1CCN(Cc2ccc(OC3CC3)cc2)C1)c1cc(C(F)(F)F)ccc1F [Compound 168]	> 8	> 8	~8 (≈ 17.4 µM)	> 8	> 8	> 8	> 8	> 8	~8 (≈ 17.4 µM)	0.25 (≈ 0.545 µM)	> 8	> 8
O=S(=O)(N[C@@H]1CCN(Cc2ccc(OC3CC3)cc2)C1)c1cnccc1Cl [Compound 169]	> 8	> 8	> 8	> 8	> 8	> 8	> 8	> 8	> 8	> 8	> 8	> 8
Cn1ccc(-c2ccc(CN3CC[C@@H](NS(=O)(=O)c4cccc(C#N)c4)C3)cc2)n1 [Compound 170]	> 8	> 8	> 8	> 8	> 8	> 8	> 8	> 8	> 8	2 (≈ 4.74 µM)	> 8	> 8
